# Patent US20220313698A1, “MODULATORS OF CYSTIC FIBROSIS TRANSMEMBRANE CONDUCTANCE REGULATOR” (Vertex Pharmaceuticals Incorporated, priority 2019, published 2022)
# Molecular target: CFTR-mediated chloride transport (Homo sapiens, UniProt P13569)
# Assay: Corrector Assay A - membrane potential dye assay (enteroid cells)
# Settings: for Corrector Assay A % activity: % of chloride transport of triple combination control (1 μM (14S)-dispiro macrocycle + 3 μM tezacaftor + 300 nM ivacaftor); for EC50: read-out: Corrector Assay A EC50, human intestinal enteroid cells, 18-24 h incubation, acute 10 μM forskolin + 300 nM ivacaftor
Corrector Assay A % activity,EC50,SMILES
++ (++ is 30-60%),< 1000 nM,CC(C)O[C@H]1C[C@@H](Oc2ccc3c(n2)N2C[C@@H](CC[C@@H](c4ccccn4)Nc4cccc(n4)S(=O)(=O)NC3=O)CC2(C)C)C1 [Compound 162]
++ (++ is 30-60%),< 1000 nM,CC(C)(C)c1ccc2c(n1)N1C[C@@H](CCC(c3ccc(N4CCCC4)cn3)Nc3cccc(n3)S(=O)(=O)NC2=O)CC1(C)C (stereo partly shown) [Compound 163]
+++ (+++ is >60%),< 1000 nM,"CC(C)(C)c1ccc2c(n1)N1C[C@@H](CCC(c3ccc(N4CCCC4)cn3)Nc3cccc(n3)S(=O)(=O)NC2=O)CC1(C)C (stereo partly drawn) [Compound 164, (14S)-8-tert-butyl-12,12-dimethyl-17-[5-(pyrrolidin-1-yl)pyridin-2-yl]-2λ^6-thia-3,9,11,18,23-pentaazatetracyclo[17.3.1.111,14.05,10]tetracosa-1(23),5(10),6,8,19,21-hexaene-2,2,4-trione]"
++ (++ is 30-60%),< 1000 nM,CC(C)(C)c1ccc2c(n1)N1C[C@@H](CCC(c3ccc(C4CNC4)cn3)Nc3cccc(n3)S(=O)(=O)NC2=O)CC1(C)C (stereo partly shown) [Compound 165]
+++ (+++ is >60%),< 1000 nM,CC(C)(C)c1ccc2c(n1)N1C[C@@H](CCC(c3ccc(C4CNC4)cn3)Nc3cccc(n3)S(=O)(=O)NC2=O)CC1(C)C (stereo partly shown) [Compound 166]
++ (++ is 30-60%),< 1000 nM,CC(C)(C)c1ccc2c(n1)N1C[C@@H](CCC(c3ccc(C4=CCOCC4)cn3)Nc3cccc(n3)S(=O)(=O)NC2=O)CC1(C)C (stereo partly shown) [Compound 167]
+++ (+++ is >60%),< 1000 nM,CC(C)(C)c1ccc2c(n1)N1C[C@@H](CCC(c3ccc(C4=CCOCC4)cn3)Nc3cccc(n3)S(=O)(=O)NC2=O)CC1(C)C (stereo partly shown) [Compound 168]
++ (++ is 30-60%),< 1000 nM,CC(C)(C)c1ccc2c(n1)N1C[C@@H](CCC(c3ccc(C4CC4)cn3)Nc3cccc(n3)S(=O)(=O)NC2=O)CC1(C)C (stereo partly shown) [Compound 169]
+++ (+++ is >60%),< 1000 nM,CC(C)(C)c1ccc2c(n1)N1C[C@@H](CCC(c3ccc(C4CC4)cn3)Nc3cccc(n3)S(=O)(=O)NC2=O)CC1(C)C (stereo partly shown) [Compound 170]
+ (+ is <30%),< 1000 nM,CC(C)(C)c1ccc2c(n1)N1C[C@@H](CC[C@@H](c3cccc(N4CCCCC4)n3)Nc3cccc(n3)S(=O)(=O)NC2=O)CC1(C)C [Compound 173]
+++ (+++ is >60%),< 1000 nM,CC(C)(C)c1ccc2c(n1)N1C[C@@H](CC[C@H](c3cccc(N4CCCCC4)n3)Nc3cccc(n3)S(=O)(=O)NC2=O)CC1(C)C [Compound 174]
+++ (+++ is >60%),< 1000 nM,CC(C)(C)c1ccc2c(n1)N1C[C@@H](CCC(c3ccc(N4CCC4)cn3)Nc3cccc(n3)S(=O)(=O)NC2=O)CC1(C)C (stereo partly shown) [Compound 175]
++ (++ is 30-60%),< 1000 nM,CC(C)(C)C#Cc1ccc2c(n1)N1C[C@@H](CC[C@@H](c3ccccn3)Nc3cccc(n3)S(=O)(=O)NC2=O)CC1(C)C [Compound 176]
+++ (+++ is >60%),< 1000 nM,CC(C)(C)C#Cc1ccc2c(n1)N1C[C@@H](CC[C@H](c3ccccn3)Nc3cccc(n3)S(=O)(=O)NC2=O)CC1(C)C [Compound 177]
+++ (+++ is >60%),< 1000 nM,CC(C)Cc1ccc(C2CC[C@@H]3CN(c4nc(C(C)(C)C)ccc4C(=O)NS(=O)(=O)c4cccc(n4)N2)C(C)(C)C3)nc1 (stereo partly shown) [Compound 180]

# Second part, the molecule before the results:
SMILES,Corrector Assay A % activity,EC50
"CC(C)(C)c1ccc2c(n1)N1C[C@@H](CCC(c3ccc(CCCN)cn3)Nc3cccc(n3)S(=O)(=O)NC2=O)CC1(C)C (stereo partly drawn) [Compound 138, (14S)-17-[5-(3-aminopropyl)pyridin-2-yl]-8-tert-butyl-12,12-dimethyl-2λ^6-thia-3,9,11,18,23-pentaazatetracyclo[17.3.1.111,14.05,10]tetracosa-1(23),5(10),6,8,19,21-hexaene-2,2,4-trione]",++ (++ is 30-60%),< 1000 nM
CC(C)(C)c1ccc2c(n1)N1C[C@@H](CC[C@@H](c3cccc(CCC#N)n3)Nc3cccc(n3)S(=O)(=O)NC2=O)CC1(C)C [Compound 139],+ (+ is <30%),> 3000 nM
CC(C)(C)c1ccc2c(n1)N1C[C@@H](CC[C@H](c3cccc(CCC#N)n3)Nc3cccc(n3)S(=O)(=O)NC2=O)CC1(C)C [Compound 140],++ (++ is 30-60%),< 1000 nM
CC(C)(C)c1ccc2c(n1)N1C[C@@H](CC[C@@H](c3cccc(C4=CCNCC4)n3)Nc3cccc(n3)S(=O)(=O)NC2=O)CC1(C)C [Compound 141],++ (++ is 30-60%),1000 to 3000 nM
"CC(C)(C)c1ccc2c(n1)N1C[C@@H](CC[C@H](c3cccc(C4=CCNCC4)n3)Nc3cccc(n3)S(=O)(=O)NC2=O)CC1(C)C [Compound 142, (14S,17R)-8-tert-Butyl-12,12-dimethyl-17-{1′,2′,3′,6′-tetrahydro-[2,4′-bipyridine]-6-yl}-2λ^6-thia-3,9,11,18,23-pentaazatetracyclo [17.3.1.111,14.05,10]tetracosa-1(23),5(10),6,8,19,21-hexaene-2,2,4-trione]",+++ (+++ is >60%),< 1000 nM
"CC(C)(C)c1ccc2c(n1)N1C[C@@H](CCC(c3ccc(CCC#N)cn3)Nc3cccc(n3)S(=O)(=O)NC2=O)CC1(C)C (stereo partly drawn) [Compound 146, 3-{6-[(14S)-8-tert-butyl-12,12-dimethyl-2,2,4-trioxo-2λ^6-thia-3,9,11,18,23-pentaazatetracyclo[17.3.1.111,14.05,10]tetracosa-1(23),5(10),6,8,19,21-hexaen-17-yl]pyridin-3-yl}propanenitrile]",+++ (+++ is >60%),< 1000 nM
CC(C)(C)c1ccc2c(n1)N1C[C@@H](CC[C@@H](c3cccc(C4CCOCC4)n3)Nc3cccc(n3)S(=O)(=O)NC2=O)CC1(C)C [Compound 147],+ (+ is <30%),> 3000 nM
CC(C)(C)c1ccc2c(n1)N1C[C@@H](CC[C@H](c3cccc(C4CCOCC4)n3)Nc3cccc(n3)S(=O)(=O)NC2=O)CC1(C)C [Compound 148],+++ (+++ is >60%),< 1000 nM
CC(C)(C)c1ccc2c(n1)N1C[C@@H](CC[C@@H](c3cccc(C4=CCOCC4)n3)Nc3cccc(n3)S(=O)(=O)NC2=O)CC1(C)C [Compound 149],+ (+ is <30%),< 1000 nM
CC(C)(C)c1ccc2c(n1)N1C[C@@H](CC[C@H](c3cccc(C4=CCOCC4)n3)Nc3cccc(n3)S(=O)(=O)NC2=O)CC1(C)C [Compound 150],+++ (+++ is >60%),< 1000 nM
CC(C)(C)c1ccc2c(n1)N1C[C@@H](CC[C@@H](c3cccc(C4CNC4)n3)Nc3cccc(n3)S(=O)(=O)NC2=O)CC1(C)C [Compound 151],++ (++ is 30-60%),< 1000 nM
CC(C)(C)c1ccc2c(n1)N1C[C@@H](CC[C@H](c3cccc(C4CNC4)n3)Nc3cccc(n3)S(=O)(=O)NC2=O)CC1(C)C [Compound 152],+++ (+++ is >60%),< 1000 nM
CC(C)(C)c1ccc2c(n1)N1C[C@@H](CCC(c3ccc(C4CCNCC4)cn3)Nc3cccc(n3)S(=O)(=O)NC2=O)CC1(C)C (stereo partly shown) [Compound 153],++ (++ is 30-60%),< 1000 nM
"CC(C)(C)c1ccc2c(n1)N1C[C@@H](CCC(c3ccc(C4CCNCC4)cn3)Nc3cccc(n3)S(=O)(=O)NC2=O)CC1(C)C (stereo partly drawn) [Compound 154, (14S)-8-tert-Butyl-12,12-dimethyl-17-[5-(piperidin-4-yl)pyridin-2-yl]-2λ^6-thia-3,9,11,18,23-pentaazatetracyclo[17.3.1.111,14.05,10]tetracosa-1(23),5(10),6,8,19,21-hexaene-2,2,4-trione]",+++ (+++ is >60%),< 1000 nM
CC(C)(C)c1ccc2c(n1)N1C[C@@H](CCC(c3ccc(C4CCOCC4)cn3)Nc3cccc(n3)S(=O)(=O)NC2=O)CC1(C)C (stereo partly shown) [Compound 156],++ (++ is 30-60%),< 1000 nM
"CC(C)CC#Cc1ccc2c(n1)N1C[C@@H](CC[C@H](c3ccccn3)Nc3cccc(n3)S(=O)(=O)NC2=O)CC1(C)C [Compound 157, (14S,17R)-12,12-dimethyl-8-(4-methylpent-1-yn-1-yl)-17-(pyridin-2-yl)-2λ^6-thia-3,9,11,18,23-pentaazatetracyclo[17.3.1.111,14.05,10]tetracosa-1(22),5,7,9,19(23),20-hexaene-2,2,4-trione]",+++ (+++ is >60%),< 1000 nM
CC(C)CC#Cc1ccc2c(n1)N1C[C@@H](CC[C@@H](c3ccccn3)Nc3cccc(n3)S(=O)(=O)NC2=O)CC1(C)C [Compound 158],++ (++ is 30-60%),< 1000 nM
CC1(C)C[C@@H]2CC[C@H](c3ccccn3)Nc3cccc(n3)S(=O)(=O)NC(=O)c3ccc(Cc4ccccc4)nc3N1C2 [Compound 159],+++ (+++ is >60%),< 1000 nM
CC1(C)C[C@@H]2CC[C@@H](c3ccccn3)Nc3cccc(n3)S(=O)(=O)NC(=O)c3ccc(Cc4ccccc4)nc3N1C2 [Compound 160],++ (++ is 30-60%),< 1000 nM
"CC(C)O[C@H]1C[C@@H](Oc2ccc3c(n2)N2C[C@@H](CC[C@H](c4ccccn4)Nc4cccc(n4)S(=O)(=O)NC3=O)CC2(C)C)C1 [Compound 161, (14S,17R)-12,12-dimethyl-17-(pyridin-2-yl)-8-[(1s,3S)-3-(propan-2-yloxy)cyclobutoxy]-2λ^6-thia-3,9,11,18,23-pentaazatetracyclo[17.3.1.111,14.05,10]tetracosa-1(22),5,7,9,19(23),20-hexaene-2,2,4-trione]",+++ (+++ is >60%),< 1000 nM
